# Source: paper PMC4317577, “Synthetic Covalently Linked Dimeric Form of H2 Relaxin Retains Native RXFP1 Activity and Has Improved In Vitro Serum Stability” (BioMed Research International, 2015)
# How the values were obtained:
# [1] = cited from earlier work
# Procedure: Nearly 9 decades since its discovery, the pleotropic peptide H2 relaxin recently completed a successful Phase III clinical trial for the treatment of acute heart failure. Despite this important success, the short in vivo half-life of the peptide (10 mins) necessitates its continuous intravenous infusion for optimum activity. As the in vivo half-life of a peptide or protein is affected by both its degradation by enzymes and renal clearance, it can be improved by, for example, conjugation with large MW compounds such as PEG or by polymerization/aggregation ...
# [2] = biological target: T1, human RXFP2 (Homo sapiens, UniProt Q8WXD0); experiment: cAMP reporter gene (pCRE β-galactosidase) assay in RXFP2 expressing HEK-293T cells; format: cell-based; details: HEK-293T cells expressing RXFP2, pCRE β-galactosidase reporter, 6 h at 37°C; at least three independent experiments in triplicate
# T1 construct: expressed in transfected cells; host or cells: HEK-293T
# Procedure: The influence of cAMP signaling by synthetic analogues in HEK-293T cells expressing either human RXFP1 or RXFP2 receptors was assessed using cAMP reporter gene assay as described previously. Briefly, HEK-293T cotransfected with response element pCRE β-galactosidase reporter plasmid were plated out in Corning Cell BIND 96-well plate at 50 000 cells per well per 200 μL. 24 h later, cotransfected cells were treated with increasing concentrations of H2 relaxin analogues in parallel with native H2 relaxin or human INSL3. After 6 h incubation at 37°C, cell media were aspirated and cells were frozen at −80°C overnight. A β-galactosidase colorimetric assay measuring absorbance at 570 nm on Benchmark Plus microplate spectrophotometer (Bio-Rad, Gladesville, Australia) was then used to measure relative cAMP responses. Each concentration point was measured in triplicate and each experiment performed independently at least three times. Ligand-induced stimulation of cAMP was expressed as a percentage of the maximum H2 relaxin response for RXFP1 cells or human INSL3 for RXFP2 cells. GraphPad Prism 5 was used to analyze the cAMP activity assay which was expressed as the mean ± S.E.M. Statistical analysis was conducted using one-way ANOVA with Newman-Keuls post hoc analysis.
# [3] = In vitro serum stability; format: in vitro ADME; details: 100% human serum; 100% male human serum, not heat inactivated, 37°C; 10.0 μL of 1.0 mg/mL peptide in 590 μL serum; samples 0-6 h, acetonitrile/0.1% TFA quench, RP-HPLC (C4) peak area; triplicate
# Procedure: The stability of the synthetic analogue was measured against native H2 relaxin in human serum. The purchased serum was not heat inactivated in order to retain as much of its proteolytic enzymic activity as possible. The peptides tested were normalized to a final concentration of 1.0 mg/mL with deionized water, and 10.0 μL of peptides was added to 590 μL 100% human serum. After addition of peptide into the serum, 50 μL of samples was removed and quenched with 250 μL of ice-cold acetonitrile/0.1% TFA. The solution was then spun down with a benchtop centrifuge at 13,500 rpm (Eppendorf Centrifuge 5804R, Melbourne, Australia) for 15 mins at 4°C to pellet the larger, precipitated serum proteins. The remaining peptide/serum solution was placed immediately into 37°C incubator. Degradation of peptides was monitored with manual RP-HPLC injections of supernatant using a Phenomenex Aeris Widepore 3.6 μm C4 analytical column (pore size, 100 Å; particle size 4.6 × 250 mm), in a stabilized gradient mode with eluent A: 0.1% aq TFA and eluant B: 0.1% TFA in acetonitrile. Samples were taken at time points 0.5, 1.0, 1.5, 2.0, 2.5, 3, 4, 5, and 6 h. […] Nonspecific peptide degradation was measured by peptide degradation in serum at 0 h. […] GraphPad Prism 5 was used to analyze the peptide degradation in serum which was expressed as the mean ratio ± S.E.M. and Microsoft Excel was used to graph all data. […]
# T1 sequence (Q8WXD0 whole entry): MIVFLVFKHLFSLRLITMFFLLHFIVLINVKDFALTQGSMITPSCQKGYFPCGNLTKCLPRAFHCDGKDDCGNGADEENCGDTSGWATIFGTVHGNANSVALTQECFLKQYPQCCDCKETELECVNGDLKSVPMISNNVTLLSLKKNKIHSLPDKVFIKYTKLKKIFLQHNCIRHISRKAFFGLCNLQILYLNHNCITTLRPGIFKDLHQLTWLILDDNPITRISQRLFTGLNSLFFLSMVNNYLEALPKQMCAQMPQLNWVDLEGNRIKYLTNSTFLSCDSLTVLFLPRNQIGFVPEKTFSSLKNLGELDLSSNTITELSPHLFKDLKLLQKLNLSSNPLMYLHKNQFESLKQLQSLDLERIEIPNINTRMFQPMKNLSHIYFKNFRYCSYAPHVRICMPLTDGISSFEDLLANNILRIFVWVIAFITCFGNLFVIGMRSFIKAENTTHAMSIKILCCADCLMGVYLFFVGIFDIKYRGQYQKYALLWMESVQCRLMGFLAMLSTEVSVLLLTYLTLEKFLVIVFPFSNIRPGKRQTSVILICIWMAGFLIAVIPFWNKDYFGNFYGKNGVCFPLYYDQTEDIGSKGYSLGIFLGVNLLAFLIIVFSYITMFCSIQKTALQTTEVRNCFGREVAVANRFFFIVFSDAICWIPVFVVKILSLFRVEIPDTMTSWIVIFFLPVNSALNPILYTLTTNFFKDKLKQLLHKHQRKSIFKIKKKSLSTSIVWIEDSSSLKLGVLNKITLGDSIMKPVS
Compound,activity in vivo relative to monomer [1] [fold],plasma half-life in rabbits [1],cAMP activation at RXFP2 compared with H2 relaxin [2],half-life at 16.7 µg/mL [3] [h]
dimeric erythropoietin: dimeric erythropoietin formed by chemical crosslinking of the monomer,26,more than 24 h,–,–
CC[C@H](C)[C@@H]1NC(=O)[C@H](C)NC(=O)[C@H](CC(C)C)NC(=O)[C@H](CCC(N)=O)NC(=O)[C@H](C)NC(=O)[C@H](CCCNC(=N)N)NC(=O)[C@H](C(C)C)NC(=O)[C@H](CC(C)C)NC(=O)[C@H](CCC(=O)O)NC(=O)[C@H](CCCNC(=N)N)NC(=O)CNC(=O)[C@@H](NC(=O)[C@H](CC(C)C)NC(=O)[C@H](CCCCN)NC(=O)[C@@H](NC(=O)[C@@H](NC(=O)[C@H](CCC(=O)O)NC(=O)[C@H](CCC(=O)O)NC(=O)[C@H](CCSC)NC(=O)[C@H](Cc2c[nH]c3ccccc23)NC(=O)[C@H](CO)NC(=O)[C@H](CC(=O)O)NC(=O)[C@@H](N)Cc2cn(CCOCCOCCOCCOCCOCCOCCOCCn3cc(C[C@H](N)C(=O)N[C@@H](CC(=O)O)C(=O)N[C@@H](CO)C(=O)N[C@@H](Cc4c[nH]c5ccccc45)C(=O)N[C@@H](CCSC)C(=O)N[C@@H](CCC(=O)O)C(=O)N[C@@H](CCC(=O)O)C(=O)N[C@H](C(=O)N[C@H](C(=O)N[C@@H](CCCCN)C(=O)N[C@@H](CC(C)C)C(=O)N[C@H]4CSSC[C@@H]5NC(=O)[C@@H](NC(=O)[C@H](CCCCN)NC(=O)[C@H](CC(N)=O)NC(=O)[C@H](C)NC(=O)[C@H](CC(C)C)NC(=O)[C@H](C)NC(=O)[C@H](CO)NC(=O)[C@H](Cc6ccc(O)cc6)NC(=O)[C@H](CC(C)C)NC(=O)[C@@H]6CCC(=O)N6)CSSC[C@H](NC(=O)CNC(=O)[C@H](C(C)C)NC(=O)[C@H](Cc6c[nH]cn6)NC5=O)C(=O)N[C@@H]([C@@H](C)O)C(=O)N[C@@H](CCCCN)C(=O)N[C@@H](CCCNC(=N)N)C(=O)N[C@@H](CO)C(=O)N[C@@H](CC(C)C)C(=O)N[C@@H](C)C(=O)N[C@@H](CCCNC(=N)N)C(=O)N[C@@H](Cc5ccccc5)C(=O)N[C@H](C(N)=O)CSSC[C@@H](C(=O)NCC(=O)N[C@@H](CCSC)C(=O)N[C@@H](CO)C(=O)N[C@H](C(=O)N[C@@H](Cc5c[nH]c6ccccc56)C(=O)N[C@@H](CO)C(N)=O)[C@@H](C)O)NC(=O)[C@H]([C@@H](C)CC)NC(=O)[C@H](C)NC(=O)[C@H](CC(C)C)NC(=O)[C@H](CCC(N)=O)NC(=O)[C@H](C)NC(=O)[C@H](CCCNC(=N)N)NC(=O)[C@H](C(C)C)NC(=O)[C@H](CC(C)C)NC(=O)[C@H](CCC(=O)O)NC(=O)[C@H](CCCNC(=N)N)NC(=O)CNC4=O)[C@@H](C)CC)C(C)C)nn3)nn2)C(C)C)[C@@H](C)CC)CSSC[C@@H]2NC(=O)[C@@H](NC(=O)[C@H](CCCCN)NC(=O)[C@H](CC(N)=O)NC(=O)[C@H](C)NC(=O)[C@H](CC(C)C)NC(=O)[C@H](C)NC(=O)[C@H](CO)NC(=O)[C@H](Cc3ccc(O)cc3)NC(=O)[C@H](CC(C)C)NC(=O)[C@@H]3CCC(=O)N3)CSSC[C@H](NC(=O)CNC(=O)[C@H](C(C)C)NC(=O)[C@H](Cc3c[nH]cn3)NC2=O)C(=O)N[C@@H]([C@@H](C)O)C(=O)N[C@@H](CCCCN)C(=O)N[C@@H](CCCNC(=N)N)C(=O)N[C@@H](CO)C(=O)N[C@@H](CC(C)C)C(=O)N[C@@H](C)C(=O)N[C@@H](CCCNC(=N)N)C(=O)N[C@@H](Cc2ccccc2)C(=O)N[C@H](C(N)=O)CSSC[C@@H](C(=O)NCC(=O)N[C@@H](CCSC)C(=O)N[C@@H](CO)C(=O)N[C@H](C(=O)N[C@@H](Cc2c[nH]c3ccccc23)C(=O)N[C@@H](CO)C(N)=O)[C@@H](C)O)NC1=O [H2 (PEG)7 H2 dimer],–,–,significantly weaker activation propensity,2.52
erythropoietin monomer: erythropoietin monomer,–,4 h,–,–
